Key:
Type in all cases: cell-based
GFP-αSyn-FKBP^F36V = target: T1, GFP-αSyn-FKBP^F36V (Homo sapiens, UniProt P62942, F37V); test: Mutant FKBP-tagged synuclein degradation test (GFP fluorescence microscopy, HeLa cells); settings: 48 hours, compared with untreated group (DMSO)
T1 construct: expressed in transfected cells; host or cells: HeLa
Protocol: HeLa cells transiently expressing GFP-α-synuclein tagged with a mutant FKBP (GFP-αSyn-FKBP^F36V) were treated with SLF′-AUTAC for 48 hours. In each of the wells of non-treated cells and treated cells, GFP fluorescence was photographed with a fluorescence microscope. Degradation of GFP-αSyn-FKBP^F36V was evaluated from the GFP fluorescence intensity.

DDX5 and p62 = target: T2, DDX5 and p62 (Homo sapiens, UniProt P17844); test: Droplet formation of DDX5 and p62, immunostaining of HeLa cells expressing GFP-FKBP^F36V; settings: 1 μM, 12 hours, fixed cells, anti-DDX5 and anti-p62 antibody
T2 construct: endogenous in cells; host or cells: HeLa (transiently expressing GFP-FKBP^F36V)
Source text: Such a “droplet” can be confirmed by labeling a DEAD-box RNA helicase and/or p62 with a fluorescent label or the like, introducing a test compound into a system in which they exist, preferably treating cells expressing at least one of these with the test compound, and observing the presence of a substance visualized by the label with a fluorescence microscope or the like. In addition, for the purpose of confirming the properties of the liquid in more detail, it is preferable to combine this method with the fluorescence recovery after photobleaching (FRAP).
HeLa cells transiently expressing GFP tagged with a mutant FKBP (GFP-FKBP^F36V) were treated with 1 μM SLF′-AUTAC for 12 hours. The treated cells were fixed with 4% paraformaldehyde, then permeabilized with 0.1% TritonX-100/PBS, blocked with 1% BSA/PBS, immersed in PBS containing 1% rabbit-derived anti-DDX5 antibody and 1% mouse-derived anti-p62 antibody, and incubated at 4° C. overnight. Subsequently, the cells were immersed in PBS containing 1% AlexaFluor555-labeled anti-rabbit IgG and 1% AlexaFluor555-labeled anti-mouse IgG, and incubated at rccm temperature for 1 hour.

RFP-p62 = target: T3, RFP-p62 (Homo sapiens, UniProt P62942+Q13501); test: Droplet formation, live cell imaging of HeLa cells expressing GFP-FKBP12 and RFP-p62, 1,6-hexanediol; settings: 10 μM, 13 hours; disappeared after addition of 5% 1,6-hexanediol
T3 construct: expressed in transfected cells; host or cells: HeLa
Protocol: (§1) HeLa cells transiently expressing GFP-FKBP12 and RFP-DDX5, or GFP-FKBP12 and RFP-p62 were treated with AUTAC2-2G added in such an amount as to achieve a concentration of 10 μM for 13 hours. The treated cells were subjected to live cell imaging by a fluorescence microscope, and fluorescence derived from GFP and RFP was continuously observed. On the way, 5% 1,6-hexanediol was added 5 minutes after the start of observation to observe whether a dot-like structure in the field of view disappeared.
(§2) 1,6-Hexanediol is known to have an action of eliminating droplets, and this makes it possible to confirm whether the dot-like structure in the field of view of the microscope is a droplet.

RFP-DDX5 = target: T4, RFP-DDX5 (Homo sapiens, UniProt P17844+P62942); test: Droplet formation, live cell imaging of HeLa cells expressing GFP-FKBP12 and RFP-DDX5, 1,6-hexanediol; settings: 10 μM, 13 hours; disappeared after addition of 5% 1,6-hexanediol
T4 construct: expressed in transfected cells; host or cells: HeLa
Protocol: as §1, §2

T1 sequence (P62942 whole entry F37V): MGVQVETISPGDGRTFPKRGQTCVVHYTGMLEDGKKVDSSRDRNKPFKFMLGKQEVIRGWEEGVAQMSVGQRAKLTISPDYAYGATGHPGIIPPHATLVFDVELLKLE
T2 sequence (P17844 whole entry): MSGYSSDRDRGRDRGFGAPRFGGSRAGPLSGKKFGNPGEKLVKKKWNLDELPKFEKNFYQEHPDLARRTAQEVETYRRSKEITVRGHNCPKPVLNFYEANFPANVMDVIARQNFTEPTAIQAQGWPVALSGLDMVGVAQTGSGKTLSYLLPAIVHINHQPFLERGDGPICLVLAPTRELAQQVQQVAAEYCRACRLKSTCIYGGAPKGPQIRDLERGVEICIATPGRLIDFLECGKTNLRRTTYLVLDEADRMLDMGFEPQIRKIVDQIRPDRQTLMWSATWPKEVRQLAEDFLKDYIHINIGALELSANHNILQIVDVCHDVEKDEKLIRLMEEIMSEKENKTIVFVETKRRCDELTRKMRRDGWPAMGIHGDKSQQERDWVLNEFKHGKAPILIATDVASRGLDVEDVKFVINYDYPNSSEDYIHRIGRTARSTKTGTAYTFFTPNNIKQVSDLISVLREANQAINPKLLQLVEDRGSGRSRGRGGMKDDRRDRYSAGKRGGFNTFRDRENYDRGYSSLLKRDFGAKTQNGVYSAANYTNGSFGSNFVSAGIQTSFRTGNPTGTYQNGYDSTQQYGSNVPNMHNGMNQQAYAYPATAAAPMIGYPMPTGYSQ
T2 sequence (Q13501 2-440 partner): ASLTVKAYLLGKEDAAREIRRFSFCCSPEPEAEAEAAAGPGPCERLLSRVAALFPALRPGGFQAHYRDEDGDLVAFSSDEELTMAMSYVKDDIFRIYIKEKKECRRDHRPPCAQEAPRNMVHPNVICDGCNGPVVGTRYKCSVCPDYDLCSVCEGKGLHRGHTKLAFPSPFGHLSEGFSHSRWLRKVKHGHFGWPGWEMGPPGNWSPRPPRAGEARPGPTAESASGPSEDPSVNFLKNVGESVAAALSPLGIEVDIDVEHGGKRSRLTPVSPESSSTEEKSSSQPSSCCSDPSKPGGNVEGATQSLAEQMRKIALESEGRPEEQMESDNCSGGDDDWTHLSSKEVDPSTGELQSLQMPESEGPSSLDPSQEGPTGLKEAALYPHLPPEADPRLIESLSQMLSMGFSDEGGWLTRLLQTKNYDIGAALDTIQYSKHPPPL
T2 sequence (P62942 2-108 F37V partner): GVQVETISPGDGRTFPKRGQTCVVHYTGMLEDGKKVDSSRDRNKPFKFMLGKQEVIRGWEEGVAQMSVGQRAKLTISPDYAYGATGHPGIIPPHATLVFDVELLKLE
T4 sequence (P17844 whole entry): as the sequence (P17844 whole entry) above
T4 sequence (P62942 whole entry): as the sequence (P62942 whole entry F37V) above, with V37F counted along it
T3 sequence (Q13501 whole entry): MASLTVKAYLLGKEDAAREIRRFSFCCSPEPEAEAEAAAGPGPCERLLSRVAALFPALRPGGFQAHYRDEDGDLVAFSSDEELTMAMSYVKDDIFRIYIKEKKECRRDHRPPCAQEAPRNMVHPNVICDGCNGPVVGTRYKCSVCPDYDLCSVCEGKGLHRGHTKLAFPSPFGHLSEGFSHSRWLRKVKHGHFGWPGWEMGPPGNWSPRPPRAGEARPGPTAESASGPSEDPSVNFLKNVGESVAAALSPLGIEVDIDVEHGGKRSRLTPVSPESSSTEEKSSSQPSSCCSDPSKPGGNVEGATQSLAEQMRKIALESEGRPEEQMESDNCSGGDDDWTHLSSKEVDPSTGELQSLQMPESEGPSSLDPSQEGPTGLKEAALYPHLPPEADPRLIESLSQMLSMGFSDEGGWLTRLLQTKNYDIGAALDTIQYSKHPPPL
T3 sequence (P62942 whole entry): as the sequence (P62942 whole entry F37V) above, with V37F counted along it

| SMILES | degradation of GFP-αSyn-FKBP^F36V (GFP fluorescence intensity) (GFP-αSyn-FKBP^F36V; 1 μM) | degradation of GFP-αSyn-FKBP^F36V (GFP fluorescence intensity) (GFP-αSyn-FKBP^F36V; 10 μM) | formation of a droplet containing DDX5 and p62 (DDX5 and p62) | dot-like structure (droplet) containing GFP-FKBP12 and RFP-p62 (RFP-p62) | dot-like structure (droplet) containing GFP-FKBP12 and RFP-DDX5 (RFP-DDX5) |
| --- | --- | --- | --- | --- | --- |
| CC[C@H](C(=O)N1CCCC[C@H]1C(=O)O[C@H](CCc1ccc(OC)c(OC)c1)c1cccc(OCC(=O)NCCCOCCOCCOCCCn2cc(-c3nc4c(=O)[nH]c(N)nc4n3Cc3ccc(F)cc3)cn2)c1)c1cc(OC)c(OC)c(OC)c1 [SLF′-AUTAC] | the degradation of GFP-αSyn-FKBP^F36V was observed | the degradation of GFP-αSyn-FKBP^F36V was observed | DDX5 and p62 formed droplets in the cells | – | – |
| CCC(C)(C)C(=O)C(=O)N1CCCC[C@H]1C(=O)O[C@H](CCc1ccc(OC)c(OC)c1)c1cccc(NC(=O)CCC(=O)NCCCOCCOCCOCCCn2cc(-c3nc4c(=O)[nH]c(N)nc4n3Cc3ccc(F)cc3)cn2)c1 [AUTAC2-2G] | – | – | – | a dot-like structure containing GFP-FKBP12 and RFP-p62 were observed | a dot-like structure containing GFP-FKBP12 and RFP-DDX5 |

From patent publication US20260276625A1, “SCREENING METHOD FOR COMPOUND INDUCING AUTOPHAGY” (TOHOKU UNIVERSITY, priority 2023, published 2026)
